Reference: US7803795B2, “Phthalazine derivatives as parp inhibitors” (Janssen Pharmaceutica N.V., priority 2004, dated 2010)

biological target: T1, PARP-1 enzyme (Homo sapiens, UniProt P09874); assay: in vitro filtration assay for PARP-1 inhibitory activity; format: biochemical; settings: [32P]-NAD, histones, nicked DNA; dose-response 10^-5 M to 10^-8 M; read-out: in vitro filter assay PARP-1 pIC50 (converted)
T1 construct: made in house
Experimental: In Vitro Filtration Assay for PARP-1 Inhibitory Activity
Compounds of the present invention were tested in an in vitro filtration assay assessing PARP-1 activity (triggered in the presence of nicked DNA) by means of its histone poly (ADP-ribosylation activity using [^32P]-NAD as ADP-ribosyl donor. The radioactive ribosylated histones were precipitated by trichloroacetic acid (TCA) in 96-well filterplates and the incorporated [^32P] measured using a scintillation counter
A mixture of histones (stock solution: 5 mg/ml in H2O), NAD^+ (stock solution: 100 mM in H2O), and [^32P]-NAD^+ in incubation buffer (50 mM Tris/HCl, pH 8; 0.2 mM DTT; 4 mM MgCl2) was made. A mixture of the PARP-1 enzyme (5-10 μg/ml) and nicked DNA was also made. The nicked DNA was prepared as described in the in vitro SPA for PARP-1 inhibitory activity. Seventy-five μl of the PARP-1 enzyme/DNA mixture together with 1 μl of compound in DMSO and 25 μl of histones-NAD^+/[^32P]-NAD^+ mixture was added per well of a 96-well filterplate (0.45 μm, supplier Millipore). The final concentrations in the incubation mixture were 2 μg/ml for the histones, 0.1 mM for the NAD^+, […] (0.5 μC) for the [^32P]-NAD^+ and 2 μg/ml for the nicked DNA. Plates were incubated for 15 min. at room temperature and the reaction was terminated by the addition of 10 μl ice cold 100% TCA followed by the addition of 10 μl ice-cold BSA solution (1% in H2O). The protein fraction was allowed to precipitate for 10 min. at 4° C. and plates were vacuum filtered. The plates were subsequently washed with, for each well, 1 ml of 10% ice cold TCA, 1 ml of 5% ice cold TCA and 1 ml of 5% TCA at room temperature. Finally 100 μl of scintillation solution (Microscint 40, Packard) was added to each well and the plates were transferred to a TopCountNXT™ (supplier: Packard) for scintillation counting and values were expressed as counts per minute (cpm). For each experiment, controls (containing PARP-1 enzyme and DMSO without compound), a blank incubation (containing DMSO but no PARP-1 enzyme or compound) and samples (containing PARP-1 enzyme and compound dissolved in DMSO) were run in parallel. All compounds tested were dissolved and eventually further diluted in DMSO. In first instance, compounds were tested at a concentration of 10^−5M. […] In each test, the blank value was subtracted from both the control and the sample values. The control sample represented maximal PARP-1 enzyme activity. For each sample, the amount of cpm was expressed as a percentage of the mean cpm value of the controls. When appropriate, IC50-values (concentration of the drug, needed to reduce the PARP-1 enzyme activity to 50% of the control) were computed using linear interpolation between the experimental points just above and below the 50% level. Herein the effects of test compounds are expressed as pIC50 (the negative log value of the IC50-value). As a reference compound, 4-amino-1,8-naphthalimide was included to validate the filtration assay.

T1 sequence (P09874 whole entry): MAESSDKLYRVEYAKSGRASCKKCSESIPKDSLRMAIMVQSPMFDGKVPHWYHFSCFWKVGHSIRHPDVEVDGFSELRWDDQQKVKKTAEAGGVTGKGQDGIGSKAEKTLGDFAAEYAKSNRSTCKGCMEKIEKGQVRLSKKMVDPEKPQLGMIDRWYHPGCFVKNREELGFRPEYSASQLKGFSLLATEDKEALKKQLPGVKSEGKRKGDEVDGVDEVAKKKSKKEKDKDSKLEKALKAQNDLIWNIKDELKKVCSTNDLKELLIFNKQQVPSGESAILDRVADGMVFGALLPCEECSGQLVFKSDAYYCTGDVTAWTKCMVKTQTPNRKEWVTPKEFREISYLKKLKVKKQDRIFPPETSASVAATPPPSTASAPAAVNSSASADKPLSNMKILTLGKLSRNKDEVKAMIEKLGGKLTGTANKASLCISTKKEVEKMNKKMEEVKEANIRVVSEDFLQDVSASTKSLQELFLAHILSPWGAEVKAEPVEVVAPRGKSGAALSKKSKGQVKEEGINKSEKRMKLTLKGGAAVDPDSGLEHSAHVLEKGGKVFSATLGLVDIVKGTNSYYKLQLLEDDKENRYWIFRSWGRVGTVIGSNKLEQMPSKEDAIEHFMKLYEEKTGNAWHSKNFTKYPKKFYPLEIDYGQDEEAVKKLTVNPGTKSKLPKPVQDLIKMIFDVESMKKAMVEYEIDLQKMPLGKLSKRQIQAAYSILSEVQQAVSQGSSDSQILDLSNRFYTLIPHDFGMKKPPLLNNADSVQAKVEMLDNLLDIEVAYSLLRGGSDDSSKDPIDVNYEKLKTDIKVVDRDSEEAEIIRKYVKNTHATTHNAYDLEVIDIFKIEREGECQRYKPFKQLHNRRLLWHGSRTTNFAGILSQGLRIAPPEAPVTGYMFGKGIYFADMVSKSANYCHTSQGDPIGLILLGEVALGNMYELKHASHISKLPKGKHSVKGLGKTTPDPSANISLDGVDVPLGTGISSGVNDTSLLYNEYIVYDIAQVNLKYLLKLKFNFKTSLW

SMILES	IC50 [nM]
O=c1[nH]nc(C2CCN(Cc3ccccc3)CC2)c2ccccc12 [Compound 1]	55
O=c1[nH]nc(N[C@@H]2C[C@H]3CC[C@@H](C2)N3CCCC(c2ccc(F)cc2)c2ccc(F)cc2)c2ccccc12 [Compound 3]	204
Cc1nnc(N2CCN(CCn3c(=O)[nH]c4ccccc4c3=O)CC2)c2ccccc12 [Compound 70]	268
Cc1nc2ccccn2c(=O)c1CCN1CCN(c2nnc(C)c3ccccc23)CC1 [Compound 72]	1050
Clc1nnc(NC2CCN(CCCCOc3ccccc3)CC2)c2ccccc12 [Compound 59]	813
O=c1[nH]nc(NC2CCN(C/C=C/c3ccccc3)CC2)c2ccccc12 [Compound 65]	91.2
O=c1[nH]nc(C2CCN(CCCOc3ccc(F)cc3)CC2)c2ccccc12 [Compound 13]	19.1
Cc1nc2n(c(=O)c1CCN1CCN(c3nnc(C)c4ccccc34)CC1)CCCS2 [Compound 76]	413
O=c1[nH]nc(NC2CCN(C[C@@H](O)[C@@H]3CCc4ccccc4O3)CC2)c2ccccc12 (relative stereo) [Compound 27]	215
CN(c1nc2ccccc2s1)C1CCN(c2nnc(Cl)c3ccccc23)CC1 [Compound 61]	296
CCOC(=O)N1CCC(Nc2n[nH]c(=O)c3ccccc23)CC1 [Compound 56]	774
CCOC(=O)N1CCC(Nc2n[nH]c(=O)c3ccccc23)C1 (centres unmarked) [Compound 48]	163
CCOC(=O)N1CCC(c2n[nH]c(=O)c3ccccc23)CC1 [Compound 25]	240
CCOC(=O)N1CCCC(Nc2n[nH]c(=O)c3ccccc23)CC1 (centres unmarked) [Compound 50]	643
O=c1[nH]nc(NCC2CCCN(Cc3ccccc3)C2)c2ccccc12 (centres unmarked) [Compound 44]	221
O=c1[nH]nc(NC2CCN(Cc3ccccc3)C2)c2ccccc12 (centres unmarked) [Compound 51]	300
CCOC(=O)N1[C@@H]2CC[C@H]1C[C@H](Nc1n[nH]c(=O)c3ccccc13)C2 [Compound 11]	30
O=c1[nH]nc(C2CCN(CCCC(c3ccc(F)cc3)c3ccc(F)cc3)CC2)c2ccccc12 [Compound 67]	233
O=c1[nH]nc(NC2CCCNCC2)c2ccccc12 (centres unmarked) [Compound 34]	49.4
O=c1[nH]nc(NC2CCCN(Cc3ccccc3)C2)c2ccccc12 (centres unmarked) [Compound 53]	217
O=c1[nH]nc(NC2CCCN(CCCC(c3ccc(F)cc3)c3ccc(F)cc3)CC2)c2ccccc12 (centres unmarked) [Compound 30]	230

SMILES	IC50 [nM]
Cc1nnc(N2CCN(CCn3c(=O)[nH]c4ccccc43)CC2)c2ccccc12 [Compound 71]	533
Cc1nc2scc(C)n2c(=O)c1CCN1CCN(c2nnc(C)c3ccccc23)CC1 [Compound 74]	610
O=c1[nH]nc(NCC2CCCN(CCCC(c3ccc(F)cc3)c3ccc(F)cc3)C2)c2ccccc12 (centres unmarked) [Compound 49]	516
CCOC(=O)N1[C@@H]2CC[C@H]1C[C@H](Nc1nnc(Cl)c3ccccc13)C2 [Compound 24]	388
O=c1[nH]nc(C2CCN(c3ncccn3)CC2)c2ccccc12 [Compound 69]	125
O=c1[nH]nc(C2CCN(C/C=C/c3ccccc3)CC2)c2ccccc12 [Compound 66]	96.4
O=c1[nH]nc(C2CCN(CCCCOc3ccccc3)CC2)c2ccccc12 [Compound 68]	50
O=c1[nH]nc(N[C@@H]2C[C@H]3CC[C@@H](C2)N3)c2ccccc12 [Compound 15]	35.5
O=c1[nH]nc(N2CCN(CCCC(c3ccc(F)cc3)c3ccc(F)cc3)CC2)c2ccccc12 [Compound 52]	356
COc1ccc(CCN2CCC(Nc3n[nH]c(=O)c4ccccc34)CC2)cc1 [Compound 63]	146
O=c1[nH]nc(C2CCNCC2)c2ccccc12 [Compound 4]	70.8
Cc1nc2n(c(=O)c1CCN1CCN(c3nnc(C)c4ccccc34)CC1)CCS2 [Compound 75]	361
CCOC(=O)N1CCN(c2nnc(Cl)c3ccccc23)CC1 [Compound 58]	316
O=c1[nH]nc(N2CCC(c3cccc(C(F)(F)F)c3)C2)c2ccccc12 (centres unmarked) [Compound 55]	210
Clc1nnc(N2CCN(c3ccccc3)CC2)c2ccccc12 [Compound 77]	168
Cc1nc2sccn2c(=O)c1CCN1CCN(c2nnc(C)c3ccccc23)CC1 [Compound 73]	515
O=c1[nH]nc(NC2CCN(CCCCOc3ccccc3)CC2)c2ccccc12 [Compound 46]	134
Clc1nnc(NC2CCN(Cc3ccccc3)C2)c2ccccc12 (centres unmarked) [Compound 12]	188
Fc1ccc(C(CCCN2CCN(c3nnc(Cl)c4ccccc34)CC2)c2ccc(F)cc2)cc1 [Compound 57]	472
Cc1nnc(N2CCN(CCCC(c3ccc(F)cc3)c3ccc(F)cc3)CC2)c2ccccc12 [Compound 29]	302
